Data from ChEMBL document CHEMBL6153079, “Discovery of noncovalent diaminopyrimidine-based Inhibitors for glioblastoma via a dual FAK/DNA targeting strategy” (Eur J Med Chem, 2025).
Active and inactive are the calls of the source. No cut-off for these calls is given here.

Key:
[1] = system: U-251; assay: Antiproliferative activity against human U-251 assessed as cell viability incubated for 48 hrs by MTT assay; format: functional, cell-based; settings: U-251, 48 h
[2] = system: U-87 MG; assay: Antiproliferative activity against human U-87 MG assessed as cell viability incubated for 48 hrs by MTT assay; format: functional, cell-based, U-87MG ATCC
[3] = target: T1, Focal adhesion kinase 1 (Homo sapiens, UniProt Q05397); assay: Inhibition of FAK (unknown origin) at 10 nM relative to control
T1 sequence (Q05397 2-1052 limits assumed): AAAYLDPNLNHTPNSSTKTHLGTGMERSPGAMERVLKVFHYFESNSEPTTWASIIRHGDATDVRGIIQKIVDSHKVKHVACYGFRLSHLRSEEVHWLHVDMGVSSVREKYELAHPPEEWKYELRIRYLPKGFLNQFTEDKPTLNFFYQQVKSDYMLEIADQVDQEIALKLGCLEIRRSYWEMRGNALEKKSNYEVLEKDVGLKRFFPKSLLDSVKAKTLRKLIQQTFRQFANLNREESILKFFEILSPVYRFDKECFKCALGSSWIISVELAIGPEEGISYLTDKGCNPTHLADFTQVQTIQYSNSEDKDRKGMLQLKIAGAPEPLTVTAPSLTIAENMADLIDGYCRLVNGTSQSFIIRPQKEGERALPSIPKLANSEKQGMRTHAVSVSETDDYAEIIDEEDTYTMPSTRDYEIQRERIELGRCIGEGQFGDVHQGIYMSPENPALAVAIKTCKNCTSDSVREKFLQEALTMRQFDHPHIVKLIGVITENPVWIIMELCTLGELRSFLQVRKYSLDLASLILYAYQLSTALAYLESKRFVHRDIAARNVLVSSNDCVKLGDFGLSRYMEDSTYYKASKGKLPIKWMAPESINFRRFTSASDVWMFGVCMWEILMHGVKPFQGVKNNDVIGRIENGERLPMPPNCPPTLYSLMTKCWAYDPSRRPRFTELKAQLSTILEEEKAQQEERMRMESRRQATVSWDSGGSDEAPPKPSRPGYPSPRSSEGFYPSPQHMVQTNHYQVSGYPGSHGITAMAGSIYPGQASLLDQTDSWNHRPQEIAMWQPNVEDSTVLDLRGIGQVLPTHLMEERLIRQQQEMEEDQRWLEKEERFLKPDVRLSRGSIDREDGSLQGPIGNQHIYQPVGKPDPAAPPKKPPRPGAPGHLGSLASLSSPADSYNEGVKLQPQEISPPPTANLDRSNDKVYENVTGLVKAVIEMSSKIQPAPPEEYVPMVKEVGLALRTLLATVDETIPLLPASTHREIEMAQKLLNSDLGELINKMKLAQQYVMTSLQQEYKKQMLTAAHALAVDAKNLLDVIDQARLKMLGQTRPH

[4] = Cytotoxicity against human LO2 assessed as cell viability incubated for 48 hrs by MTT assay; format: toxicity, cell-based, L02; settings: LO2 cells
[5] = Cytotoxicity against human 2BS assessed as cell viability incubated for 48 hrs by MTT assay; format: toxicity, cell-based; settings: 2BS cells
[6] = Distribution coefficient, logD of compound in n-Octanol/water at pH 7.4; format: physicochemical
[7] = system: U-87 MG; assay: Induction of DNA damage in human U-87 MG cells assessed as comet tail moment at 0.1 to 2 uM incubated for 2.5 to 3 hrs by comet assay; format: functional; settings: time 2.5-3 hrs
[8] = system: U-87 MG; assay: Inhibition of colony formation in human U-87 MG cells at 0.005 uM incubated for 14 days and subsequent media replacement with compound for every 3 days by crystal violet staining based analysis; format: functional, cell-based; settings: U-87MG ATCC, time 14.0 day
[9] = system: U-87 MG; assay: Inhibition of colony formation in human U-87 MG cells at 0.005 uM incubated for 14 days and subsequent media replacement with compound for every 3 days in presence of Chlorambucil by crystal violet staining based analysis; format: functional, cell-based; settings: U-87MG ATCC, time 14.0 day
[10] = system: U-87 MG; assay: Antiproliferative activity against human U-87 MG assessed as inhibition of cell growth at 0.025 to 0.1 uM by clonogenic assay relative to control; format: functional, U-87MG ATCC; settings: dose 0.025-0.1 µM
[11] = system: U-87 MG; assay: Antiproliferative activity against human U-87 MG assessed as inhibition of cell growth at 0.025 to 0.1 uM in presence of Chlorambucil by clonogenic assay relative to control; format: functional, U-87MG ATCC; settings: dose 0.025-0.1 µM
[12] = system: U-87 MG; assay: Antiproliferative activity against human U-87 MG assessed as inhibition of cell growth at 0.005 uM by clonogenic assay relative to control; format: functional, U-87MG ATCC
[13] = system: U-87 MG; assay: Antiproliferative activity against human U-87 MG assessed as inhibition of cell growth at 0.005 uM in presence of Chlorambucil by clonogenic assay relative to control; format: functional, U-87MG ATCC
[14] = system: U-87 MG; assay: Inhibition of cell migration in human U-87 MG cells assessed as […] in migration distance at 0.1 to 1 uM incubated for 24 to 48 hrs by wound healing assay; format: functional, cell-based; settings: U-87MG ATCC, dose 0.1-1 µM, time lower 24.0 hrs, time upper […]
[15] = system: U-87 MG; assay: Inhibition of cell migration in human U-87 MG cells assessed as […] at 0.1 to 1 uM by wound healing assay; format: functional, cell-based; settings: U-87MG ATCC, dose 0.1-1 µM, time lower 24.0 hrs, time upper […]
[16] = target: T1, Focal adhesion kinase 1; assay: Inhibition of FAK phosphorylation in human U-87 MG cells at 0.05 to 0.4 uM incubated for 24 hrs by Western blot analysis; format: cell-based; settings: dose 0.05-0.4 µM
[17] = system: U-87 MG; assay: Inhibition of AKT phosphorylation in human U-87 MG cells at 0.05 to 0.4 uM incubated for 24 hrs by Western blot analysis; format: cell-based; settings: dose 0.05-0.4 µM
[18] = system: U-87 MG; assay: Inhibition of ERK1/2 phosphorylation in human U-87 MG cells at 0.05 to 0.4 uM incubated for 24 hrs by Western blot analysis; format: cell-based; settings: dose 0.05-0.4 µM
[19] = system: U-87 MG; assay: Induction of apoptosis in human U-87 MG cells assessed as viable cells at 2 uM measured upto 24 hrs by Annexin V-FITC/PI staining based flow cytometry analysis (reference value: 98.4%); format: functional, U-87MG ATCC; settings: read-out: Activity
[20] = system: U-87 MG; assay: Induction of apoptosis in human U-87 MG cells assessed as early apoptotic cells at 2 uM measured upto 24 hrs by Annexin V-FITC/PI staining based flow cytometry analysis (reference value: 0.45%); format: functional, U-87MG ATCC
[21] = system: U-87 MG; assay: Induction of apoptosis in human U-87 MG cells assessed as late apoptotic cells at 2 uM measured upto 24 hrs by Annexin V-FITC/PI staining based flow cytometry analysis (reference value: 0.54%); format: functional, U-87MG ATCC
[22] = system: U-87 MG; assay: Induction of apoptosis in human U-87 MG cells assessed as necrotic cells at 2 uM measured upto 24 hrs by Annexin V-FITC/PI staining based flow cytometry analysis (reference value: 0.62%); format: functional, U-87MG ATCC
[23] = system: U-87 MG; assay: Induction of apoptosis in human U-87 MG cells assessed as viable cells at 4 uM measured upto 24 hrs by Annexin V-FITC/PI staining based flow cytometry analysis (reference value: 98.4%); format: functional, U-87MG ATCC; settings: read-out: Activity
[24] = system: U-87 MG; assay: Induction of apoptosis in human U-87 MG cells assessed as early apoptotic cells at 4 uM measured upto 24 hrs by Annexin V-FITC/PI staining based flow cytometry analysis (reference value: 0.45%); format: functional, U-87MG ATCC
[25] = system: U-87 MG; assay: Induction of apoptosis in human U-87 MG cells assessed as late apoptotic cells at 4 uM measured upto 24 hrs by Annexin V-FITC/PI staining based flow cytometry analysis (reference value: 0.54%); format: functional, U-87MG ATCC
[26] = system: U-87 MG; assay: Induction of apoptosis in human U-87 MG cells assessed as necrotic cells at 4 uM measured upto 24 hrs by Annexin V-FITC/PI staining based flow cytometry analysis (reference value: 0.62%); format: functional, U-87MG ATCC
[27] = system: U-87 MG; assay: Induction of apoptosis in human U-87 MG cells assessed as viable cells at 8 uM measured upto 24 hrs by Annexin V-FITC/PI staining based flow cytometry analysis (reference value: 98.4%); format: functional, U-87MG ATCC; settings: read-out: Activity
[28] = system: U-87 MG; assay: Induction of apoptosis in human U-87 MG cells assessed as early apoptotic cells at 8 uM measured upto 24 hrs by Annexin V-FITC/PI staining based flow cytometry analysis (reference value: 0.45%); format: functional, U-87MG ATCC
[29] = system: U-87 MG; assay: Induction of apoptosis in human U-87 MG cells assessed as late apoptotic cells at 8 uM measured upto 24 hrs by Annexin V-FITC/PI staining based flow cytometry analysis (reference value: 0.54%); format: functional, U-87MG ATCC
[30] = system: U-87 MG; assay: Induction of apoptosis in human U-87 MG cells assessed as necrotic cells at 8 uM measured upto 24 hrs by Annexin V-FITC/PI staining based flow cytometry analysis (reference value: 0.62%); format: functional, U-87MG ATCC
[31] = system: U-87 MG; assay: Induction of apoptosis in human U-87 MG cells assessed as […] in cleaved caspase-3 level at 0.05 to 0.8 uM incubated for 24 hrs by Western blot analysis; format: functional, cell-based; settings: U-87MG ATCC, dose 0.05-0.8 µM
[32] = system: U-87 MG; assay: Induction of apoptosis in human U-87 MG cells assessed as […] in Bcl-xL level at 0.05 to 0.8 uM incubated for 24 hrs by Western blot analysis; format: functional, cell-based; settings: U-87MG ATCC, dose 0.05-0.8 µM
[33] = system: U-87 MG; assay: Induction of cell cycle arrest in human U-87 MG cells assessed as accumulation of cells at G0/G1 phase at 2 uM by propidium Iodide staining based flow cytometry analysis (reference value: 80.68%); format: functional, U-87MG ATCC
[34] = system: U-87 MG; assay: Induction of cell cycle arrest in human U-87 MG cells assessed as accumulation of cells at G2M phase at 2 uM by propidium Iodide staining based flow cytometry analysis (reference value: 9.73%); format: functional, U-87MG ATCC
[35] = system: U-87 MG; assay: Induction of cell cycle arrest in human U-87 MG cells assessed as accumulation of cells at […] at 2 uM by propidium Iodide staining based flow cytometry analysis (reference value: 1.67%); format: functional, U-87MG ATCC
[36] = system: U-87 MG; assay: Induction of cell cycle arrest in human U-87 MG cells assessed as accumulation of cells at S phase at 2 uM by propidium Iodide staining based flow cytometry analysis (reference value: 9.59%); format: functional, U-87MG ATCC
[37] = system: U-87 MG; assay: Induction of cell cycle arrest in human U-87 MG cells assessed as accumulation of cells at G0/G1 phase at 4 uM by propidium Iodide staining based flow cytometry analysis (reference value: 80.68%); format: functional, U-87MG ATCC
[38] = system: U-87 MG; assay: Induction of cell cycle arrest in human U-87 MG cells assessed as accumulation of cells at G2M phase at 4 uM by propidium Iodide staining based flow cytometry analysis (reference value: 9.73%); format: functional, U-87MG ATCC
[39] = system: U-87 MG; assay: Induction of cell cycle arrest in human U-87 MG cells assessed as accumulation of cells at […] at 4 uM by propidium Iodide staining based flow cytometry analysis (reference value: 1.67%); format: functional, U-87MG ATCC
[40] = system: U-87 MG; assay: Induction of cell cycle arrest in human U-87 MG cells assessed as accumulation of cells at S phase at 4 uM by propidium Iodide staining based flow cytometry analysis (reference value: 9.59%); format: functional, U-87MG ATCC
[41] = system: U-87 MG; assay: Induction of cell cycle arrest in human U-87 MG cells assessed as accumulation of cells at G0/G1 phase at 8 uM by propidium Iodide staining based flow cytometry analysis (reference value: 80.68%); format: functional, U-87MG ATCC
[42] = system: U-87 MG; assay: Induction of cell cycle arrest in human U-87 MG cells assessed as accumulation of cells at G2M phase at 8 uM by propidium Iodide staining based flow cytometry analysis (reference value: 9.73%); format: functional, U-87MG ATCC
[43] = system: U-87 MG; assay: Induction of cell cycle arrest in human U-87 MG cells assessed as accumulation of cells at […] at 8 uM by propidium Iodide staining based flow cytometry analysis (reference value: 1.67%); format: functional, U-87MG ATCC
[44] = system: U-87 MG; assay: Induction of cell cycle arrest in human U-87 MG cells assessed as accumulation of cells at S phase at 8 uM by propidium Iodide staining based flow cytometry analysis (reference value: 9.59%); format: functional, U-87MG ATCC
[45] = system: U-87 MG; assay: Antitumor activity against human U-87 MG cells xenografted in BALB/c mouse assessed as inhibition of tumor growth at 25 mg/kg, ip administered once daily for 15 days; format: functional, U-87MG ATCC; settings: 360 h, time 15 day, read-out: TGI
[46] = Toxicity in BALB/c mouse implanted with human U-87 MG cells assessed as lung damage at 25 mg/kg, ip administered once daily for 15 days by H and E staining based analysis; format: organism-based; settings: in vivo, 360 h, time 15 day
[47] = Toxicity in BALB/c mouse implanted with human U-87 MG cells assessed as spleen damage at 25 mg/kg, ip administered once daily for 15 days by H and E staining based analysis; format: organism-based; settings: in vivo, 360 h, time 15 day

## CNC(=O)c1ccccc1Nc1nc(Nc2ccc(N3CCOCC3)cc2OC)ncc1Cl
[1]
  IC50: 5.84 µM
[2]
  IC50: 2.85 µM
[3]
  inhibition: 78.6%
[4]
  IC50 at 48 h: 4.14 µM
[5]
  IC50 at 48 h: 42.8 µM
[6]
  logD: 3.49
[7]; U-87MG ATCC
  Activity: inactive
[8]
  inhibition: inactive
[9]
  inhibition: inactive
[10]
  inhibition (INH): 60%
[11]
  inhibition (INH): 61%
[12]
  inhibition at 0.005 µM: ~8%
[13]
  inhibition at 0.005 µM: 12%
[14]
  inhibition: Active
[15]
  inhibition: Time-dependent-effect
[16]
  inhibition: inactive
[17]
  inhibition: inactive
[18]
  inhibition: inactive
[19]
  viability at 2 µM: 84.3%
[20]
  Activity: 2.78%
[21]
  Activity: 9.29%
[22]
  Activity: 3.64%
[23]
  viability at 4 µM: 78.2%
[24]
  Activity: 11%
[25]
  Activity: 4.35%
[26]
  Activity: 6.39%
[27]
  viability at 8 µM: 61.2%
[28]
  Activity: 26.2%
[29]
  Activity: 12.3%
[30]
  Activity: 0.31%
[31]
  Activity: Active
[32]
  Activity: Active
[33]
  Activity: 72.55%
[34]
  Activity: 14.62%
[35]
  Activity: 1.75%
[36]
  Activity: 12.83%
[37]
  Activity: 56.37%
[38]
  Activity: 23.91%
[39]
  Activity: 1.81%
[40]
  Activity: 19.73%
[41]
  Activity: 33.93%
[42]
  Activity: 62.41%
[43]
  Activity: 1.84%
[44]
  Activity: 3.66%

## Cn1nnc2c(C(N)=O)ncn2c1=O [TEMOZOLOMIDE]
[7]
  Activity: 11.6
[45]
  inhibition in vivo at 25 mg/kg: 31.4%
[46]
  Activity: Non-toxic
[47]
  Activity: Non-toxic
